We go through three molecules from patent publication EP2613758B1, “MACROEMULSIONS WITH IMPROVED DEODORANT EFFICACY” (Beiersdorf AG, priority 2010, dated 2012).

The subject of one assay is Bakterien. In words: Investigations of efficacy of amphiphilic actives from micro- and macroemulsions (method not specified).
The next assay concerns S. epidermidis. In words: Suspension test (germ count reduction by the formulation). Format: cell-based. The conditions noted are these: active alone; Ethylhexylglycerin 0,5% in Makroemulsion ohne Octenidine (Abbildung 4). How it is done:
Die Wirksamkeit wurde mittels der Freisetzung von Octenidine aus Makro- bzw. Mikroemulsionen untersucht, wie es beispielhaft in Abbildung 3 und 4 dargestellt ist. Ebenso sind Untersuchungen durchgeführt worden für W/O- Aerosol-Zubereitungen einmal mit und einmal ohne Octenidine, die zu gleichen Ergebnissen geführt haben. In den dargestellten Suspensionstests wurden zu 500µL einer Bakteriensuspension (S. epidermidis) 250 mg der zu testenden Formulierung gegeben (bei der Positivkontrolle nur 250 mg des Bakterienmediums). Diese Mischungen werden mit Medium auf 1000µL aufgefüllt. Die Suspension enthält dann ca. 1*10^6 KBE/mL (KBE: koloniebildende Einheiten). Die Ansätze werden bei 37°C unter Rotation für drei Stunden inkubiert. Nach 0, 20, 60 und 180 min werden Proben genommen, verdünnt und auf Agarplatten ausplattiert. Diese werden 24h bei 37°C zur Anzucht der verbleibenden Keime inkubiert. Gute und in vivo wirksame Deodorant-Formulierungen reduzieren die Keimzahl bereits nach 20 Minuten auf Nachweisgrenze von 100 KBE/mL. Formulierungen mit schlechterer Keimzahl-Reduktion zeigen in vivo keine ausreichende Deoleistung.

`CC(C)(C)CC(C)(C)c1ccc(OCCOCC[N+](C)(C)Cc2ccccc2)cc1` [Benzethonium chloride]: the Wirksamkeit result in the assay on Bakterien (aus Makroemulsionen) is “zeigen eine Wirksamkeit”; with Bakterien (in einer Mikroemulsion), “unwirksam”.
Regarding `CCCCC(CC)COCC(O)CO` (centres unmarked) [Ethylhexylglycerin, 1-(2-Ethylhexyl)glycerinether], the “Wirksamkeit im Suspensionstest (Keimzahl-Reduktion)” value in the assay with S. epidermidis is recorded as “nicht wirksam”.
With `CCCCCCCCN=c1ccn(CCCCCCCCCCn2ccc(=NCCCCCCCC)cc2)cc1.Cl.Cl` [Octenidine HCl, N, N'-(1,10-decanediyldi-1[4H]-pyridinyl-4-ylidene)-bis-(octanamine) dihydrochloride], in the assay with Bakterien (aus Makroemulsionen), the Wirksamkeit result was “zeigen eine Wirksamkeit”. Also, the “Wirksamkeit im Suspensionstest (Keimzahl-Reduktion)” value with S. epidermidis was “gewünschte Wirksamkeit”.
